This note sets out measurements from patent publication US20210121527A1, “METHODS OF TREATING MINIMAL RESIDUAL CANCER” (ICAHN SCHOOL OF MEDICINE AT MOUNT SINAI, priority 2018, published 2021).

Each structure is given as a SMILES string.

Assay [1] deals with HER2^+ tumors. Put plainly: Growth of overt tumors in MMTV-HER2 females. The assay is classed as in vivo, mouse. How it is done:
(§1) Mice, tumor growth, and tissue processing: The FVB/N-Tg (MMTVneu) mouse strain was obtained from Jackson Laboratories (Sacramento, Calif.). […] Before being used in any experiment, females underwent one round of pregnancy and at least two weeks of no lactation after weaning. Females between 24-32 weeks of age were injected intraperitoneally with vehicle (90% corn oil, 10% ethanol) or LY4 (50 mpk) daily, for two weeks. For the combination treatment, females 24-32 weeks of age were treated daily by oral gavage with Abemaciclib (50 mpk) for 4 weeks before starting the treatment described earlier with LY4. Tumor volumes were measured using the formula (Dxd^2)/2, where D is the longest and d is the shortest diameter. For CTC count, animals were anesthetized and whole blood was extracted by cardiac puncture. Mammary glands, lungs, and tumors were collected and fixed in 10% buffered formalin overnight before paraffin embedding. The bone marrow from the two lower limbs was flushed with a 26 G needle and further processed by Ficoll density gradient centrifugation. For CTC as well as for DTC detection in bone marrow, tissues were depleted of mature hematopoietic cells by anti-mouse antibody-labeled magnetic bead separation (Miltenyi Biotec, San Diego, Calif.) before fixation in formalin for 20 minutes at 4° C.
IHC and IF: IHC and IF from paraffin-embedded sections was performed as previously described (Avivar-Valderas et al., “Regulation of Autophagy during ECM Detachment is Linked to a Selective Inhibition of mTORC1 by PERK,” Oncogene 32(41):4932-40 (2013), which is hereby incorporated by reference in its entirety). Briefly, slides were dewaxed and serially rehydrated. Heat-induced antigen retrieval was performed in either citrate buffer (10 mM, pH 6), EDTA buffer (1 mM, pH 8), or Tris/EDTA (pH9). Slides were further permeabilized in 0.1% Triton™-X100, blocked and incubated with primary antibody overnight at 4° C. at 1:50-1:200 dilution. For IHC, an additional step of endogenous peroxidase and avidin/biotin quenching was performed before primary antibody incubation. […] Next, slides were incubated in secondary antibodies (Life Technologies, Norwalk, Conn.) and mounted. For IHC, sections were processed using VectaStain ABC Elite kit (Vector Laboratories, Bulingame, Calif.) and DAB Substrate kit for peroxidase labelling (Vector Laboratories) and mounted in VectaMount medium (Vector laboratories). For IF, sections were mounted in ProLong Gold Antifade aqueous medium (Thermo Fisher, Waltham, Mass.).
TUNEL in situ cell death detection: Apoptosis levels were evaluated using the In situ Cell Death Detection kit, AP (Roche, Basel, Switzerland). Paraffin sections from tumors were dewaxed, rehydrated, and permeabilized in phosphate buffered saline (PBS) 0.2% TRITON™-X100 for 8 minutes. Then, slides were washed and blocked in 20% normal goat serum for 1 hour at 37° C. The TUNEL reaction mixture was then added and let go for 1 hour at 37° C. The reaction was stopped by incubating with Buffer I(0.3 M Sodium chloride, 30 mM Sodium citrate). Next, the slides were incubated with anti-fluorescein-AP antibody for 30 minutes at 37° C. After three washes in Tris buffered saline (TBS), slides were incubated in alkaline phosphatase substrate in 0.1% TWEEN™-20 for 20 min at room temperature. Finally, the slides were mounted using aqueous mounting medium. The percentage of TUNEL positive cells was calculated using Image J software (NIH).

Assay [2] deals with T1, PERK (Mus musculus, UniProt Q9Z2B5).
T1 construct: from tissue; host or cells: mammary gland and pancreas sections of MMTV-HER2 (FVB/N-Tg(MMTVneu)) female mice
Put plainly: IHC of P-PERK and P-eIF2α in tissues of treated MMTV-HER2 mice. As to conditions: 50 mpk i.p. daily, two weeks. The assay is classed as in vivo. How it is done:
as §1, with “C. […]” for “C.”

Assay [3] deals with HER2 in MCF10A-HER2 cells. Put plainly: HER2 signaling Western blot and surface biotinylation/endocytosis assays. The assay is classed as cell-based, human. The note with it: 2 μM. An excerpt:
Immunoblot analysis: Cells were lysed in RIPA buffer and protein analyzed by immunoblotting as described previously (Ranganathan et al., “Functional Coupling of p38-Induced Up-Regulation of BiP and Activation of RNA-Dependent Protein Kinase-Like Endoplasmic Reticulum Kinase to Drug Resistance of Dormant Carcinoma Cells,” Cancer Res. 66:1702-1711 (2006), which is hereby incorporated by reference in its entirety). Membranes were blotted using the additional following antibodies: P-PERK (T982) (Tenkerian et al., “mTORC2 Balances AKT Activation and eIF2alpha Serine 51 Phosphorylation to Promote Survival Under Stress,” Mol. Cancer Res. 13:1377-1388 (2015), which is hereby incorporated by reference in its entirety), PERK (Santa Cruz, Dallas, Tex.), P-EGFR(Y1148), EGFR, P-AKT(S473), P-S6 (S235/236) (Cell signaling, Danvers, Mass.), GAPDH (Millipore, Darmstadt, Germany), and β-Tubulin (Abcam, Cambridge, Mass.). For induction of ER stress, MCF10A-HER2 cells were plated in low adhesion plates for 24 hours before collection.
Cell surface biotinylation and endocytosis assay: For cell surface biotinylation, Pierce cell surface protein isolation kit was used following manufacturer's instructions with minor changes. Briefly, MCF10A-HER2 cells were serum- and EGF-starved and treated+/−LY4 for 24 hours before being stimulated with +/−EGF (100 ng/ml) for 20′. Then, cells were washed with ice-cold PBS and surface proteins biotinylated for 30 minutes at 4° C. After quenching, cells were harvested and lysed using RIPA buffer. Protein lysates were incubated with NeutrAvidin agarose beads and the bound proteins were released by incubation with SDS-PAGE sample buffer containing DTT (50 mM). For endocytosis assays (Cihil et al., “The Cell-Based L-Glutathione Protection Assays to Study Endocytosis and Recycling of Plasma Membrane Proteins,” J. Vis. Erp. e50867 (2013), which is hereby incorporated by reference in its entirety), cells were treated similarly but before treatment with EGF cell surface proteins were biotinylated. After 20 minute incubation+/−EGF (100 ng/ml) at 37° C. […]
In general terms: A western blot detects proteins with antibodies after separation by electrophoresis.

T1 sequence (Q9Z2B5 29-1114): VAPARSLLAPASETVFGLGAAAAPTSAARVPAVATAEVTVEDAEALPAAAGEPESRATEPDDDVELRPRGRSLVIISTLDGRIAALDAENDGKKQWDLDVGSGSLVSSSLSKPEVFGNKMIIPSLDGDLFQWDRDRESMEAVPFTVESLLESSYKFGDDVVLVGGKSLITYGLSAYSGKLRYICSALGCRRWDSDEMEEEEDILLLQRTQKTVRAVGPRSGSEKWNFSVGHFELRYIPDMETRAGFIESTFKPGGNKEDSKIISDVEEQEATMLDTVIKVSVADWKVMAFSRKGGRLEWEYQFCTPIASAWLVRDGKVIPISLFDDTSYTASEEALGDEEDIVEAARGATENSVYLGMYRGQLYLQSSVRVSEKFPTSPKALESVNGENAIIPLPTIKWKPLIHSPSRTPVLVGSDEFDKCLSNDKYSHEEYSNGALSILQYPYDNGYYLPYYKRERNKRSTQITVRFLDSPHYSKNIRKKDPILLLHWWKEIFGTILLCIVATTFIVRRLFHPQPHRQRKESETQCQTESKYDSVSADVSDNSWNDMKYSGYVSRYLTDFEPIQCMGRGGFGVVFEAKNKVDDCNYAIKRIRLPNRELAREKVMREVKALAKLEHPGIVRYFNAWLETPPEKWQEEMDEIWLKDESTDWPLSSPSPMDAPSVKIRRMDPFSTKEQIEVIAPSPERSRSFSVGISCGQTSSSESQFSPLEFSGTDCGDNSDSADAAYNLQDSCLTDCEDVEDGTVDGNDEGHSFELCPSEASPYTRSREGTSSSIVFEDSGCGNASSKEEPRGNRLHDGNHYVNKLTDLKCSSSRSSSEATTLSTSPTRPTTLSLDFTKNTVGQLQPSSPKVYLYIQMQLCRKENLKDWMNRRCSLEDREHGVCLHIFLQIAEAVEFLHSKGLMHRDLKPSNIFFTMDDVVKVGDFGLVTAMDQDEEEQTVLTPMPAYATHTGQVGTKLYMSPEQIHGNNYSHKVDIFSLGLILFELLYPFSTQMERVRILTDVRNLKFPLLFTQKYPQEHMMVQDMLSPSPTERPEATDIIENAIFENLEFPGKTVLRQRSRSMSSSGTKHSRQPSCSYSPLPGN

In the case of `Cc1cc(NC(=O)[C@H](O)c2cc(F)cc(F)c2)ccc1-c1cnc(N)c(C(=O)NC(C)C)c1` [LY4, 2-amino-5-[4-[[(2R)-2-(3,5-difluorophenyl)-2-hydroxy-acetyl]amino]-2-methyl-phenyl]-N-isopropyl-pyridine-3-carboxamide], in assay [1] (2-week treatment, 7% in controls), the “tumors remaining in complete cytostasis” value was found to be 43%. In addition, the tumors showing regression in assay [1] (2-week window treatment) was found to be 25%. In addition, in assay [1] (50 mpk, two weeks), the “P-HER2 levels in tumors (IHC score)” value was “significantly lower levels of P-HER2 than control animals”; the “TUNEL staining of tumor sections (DNA fragmentation)” value is “significant increase in the levels of DNA fragmentation”; the “median final tumor volume” value is “significant decrease in median final tumor volume”; the “proliferation in tumors (P-histone H3 IHC)” value was “not different between vehicle- and LY4-treated tumors”. The tumor growth rate entry in assay [1] (50 mpk, two weeks) is “reduced growth rate”. Besides, in assay [2], the “P-PERK and P-eIF2α levels in mammary gland ducts and pancreatic tissue” value was “significant decrease in P-PERK and P-eIF2α levels”. In assay [3], the “P-HER2 and total HER2 on the cell surface (surface biotinylation)” value was “decreased the amount of P-HER2 and total HER2 in the cell surface”; the “endocytosed phospho-HER2 and total HER2 (reversible surface biotinylation)” value was “increasing endocytosed phospho-HER2 and total HER2”. Moreover, in assay [3] (starved cells +/- EGF 100 ng/ml, 15 minutes), the “P-EGFR, P-HER2, P-AKT, P-S6, P-ERK1/2 levels (Western blot)” value was “decreased both the basal and EGF-induced levels of P-EGFR and P-HER2”.
